Laboratory results from paper PMC10301845, “Characterization of a Novel M4 PAM PET Radioligand [11C]PF06885190 in Nonhuman Primates (NHP)” (Molecules, 2023).

Test: Radiometabolite analysis in NHP blood plasma (gradient HPLC)
Format: in vivo, cynomolgus monkey
Experimental: Radiometabolites in NHP blood plasma were analyzed following a previously published method. A reverse-phase HPLC system with an UV absorbance detector (ƛ = 254 nm) coupled to a radio detector was used to determine the percentages of radioactivity corresponding to [^11C]PF06885190 and its radioactive metabolites during whole PET measurement. Arterial blood samples (0.7–1.5 mL) were obtained using an automated blood sampling system from the monkey at different time points such as 2, 5, 15, 30 and 60 min after injection of [^11C]PF06885190 following a previously described method. Plasma was separated from collected blood by centrifuging at 4000 rpm for 2 min. The obtained plasma was diluted with 1.4 times volume of acetonitrile and then centrifuged at 6000 rpm for 4 min. The extract was separated from the pellet and was diluted with water (3 mL) before being injected into the HPLC system. The HPLC system was coupled to an Agilent binary pump (Agilent 1200 series) which was connected to a manual injection valve (7725i, Rheodyne), a 5.0 mL loop, and a radiation detector (Oyokoken, S-2493Z) housed in a shield of 50 mm thick lead. A semi-preparative reverse-phase, an ACE 5µm C18 HL column ([…]), was used to achieve the chromatographic separation (Figure S4A,B, Supplementary Material) of the radiometabolites from the unchanged parent compound [^11C]PF06885190 by gradient elution. Acetonitrile (A) and 0.1 M amoniumformate (B) were used as the mobile phase at flow rate 5.0 mL/min, according to the following program: 0−4.0 min, (A/B) 40:60 → 90:10 v/v; 4.0−6.0 min, (A/B) 90:10 v/v. a radioactive peak corresponding to [^11C]PF06885190 eluted from the HPLC column was integrated and the area was expressed as a percentage of the sum of the areas of all detected radioactive compounds. To calculate the recovery of radioactivity from the system, the eluate from the HPLC column was measured in a capintec dose calibrator and divided by the amount of total radioactivity injected into the HPLC.

## Cc1nc(N[11CH3])c2c(c1C)CN(C(=O)C[C@H]1C[C@@H]1c1ccc(F)nc1)C2 [[^11C]PF06885190]
5 min after injection
  parent compound in plasma: approximately 95%
60 min, after pretreatment with CVL-231
  parent compound in plasma: about 20%
60 min, after pretreatment with donepezil
  parent compound in plasma: about 30%
60 min, baseline condition
  parent compound in plasma: about 20%
